Five compounds from patent publication US12252524B2, “GIP/GLP1 co-agonist compounds” (Eli Lilly and Company, priority 2018, dated 2025) can be followed below.

One may read the CL/F as clearance divided by bioavailability, as obtained after extravascular dosing. The Tmax is the time from dosing to the highest level. In general, half-life refers to how long it takes for the measured level to halve. Low values mean rapid decline, high ones slow decline.

The subject of data set [1] is CD8+ T cell depleted peripheral blood mononuclear cells.
The nature of data set [2]: Proteolytic stability assay in 1% rat small intestinal fluid (rSIF). How it is done: The stability of peptides are compared in 1% rat small intestinal fluid (rSIF). The amount of intact peptide is measured for a sample peptide at 0, 3, 15, and 30 minutes to assess proteolytic stability. The amount of intact peptide for a sample peptide is measured in 90% pig small intestinal fluid (pSIF) at 0, 30, 45, and 60 minutes to assess the proteolytic stability.
Peptides are prepared at 0.4 mg/mL in 50 mM Tris pH8.0. […] The mixture is incubated at 37° C. at 150 rpm. Thirty μL of each sample are removed and placed into a new tube before the rSIF is added and at […]. At each time point, the reaction was quenched by 1% TFA in 50% ACN at 1:1. The samples are diluted 100 times using dilution buffer (1:1 of 1% TFA in 50% ACN: 50 mM Tris pH8) and ready for analysis using mass spectrometry (MS).
The data analysis is performed using MassLynx.

Data set [3] in a line: Peptide stability in 50% v/v pig small intestinal fluid with and without protease inhibitor. The conditions noted are these: for remaining at 0.25 h / remaining at 0.5 h / remaining at 1 h: read-out: % peptide intact. In kind it is in vitro ADME. As for the experimental part: A peptide is incubated at 37° C. in 1% (v/v) rat small intestinal fluid or 50% (v/v) pig small intestinal fluid with and without a peptidase inhibitor. At different time points, samples are taken out, followed by quenching with 1% TFA in 50% ACN/water to stop the enzyme activity. The intact peptide at different time points is analyzed by high-performance liquid chromatography (HPLC) equipped with an ultraviolet (UV) detector or LC-MS/MS and normalized to the amount of peptide before mixing with the enzyme solution.

The conditions of data set [4]: single subcutaneous 200 nMol/kg, male CD-1 mice.
Protocol: (§1) The pharmacokinetics of select Examples are evaluated following a single subcutaneous administration of 200 nMol/kg to male CD-1 mice. […] Plasma (K3 EDTA) concentrations are determined using a qualified LC/MS method that measures the intact mass of the Examples. […] Instruments are combined for LC/MS detection.
The conditions of data set [5]: single subcutaneous 50 nMol/kg, male Sprague Dawley rats; mean (SD).
Protocol: The pharmacokinetics of select Examples are evaluated following a single subcutaneous (SC) administration of 50 nMol/kg (dissolved in PBS, pH 7.4) or single 1 μmol/kg (mixed with 250 mM sodium decanoate (“C10”) and 12 mg/mL soybean trypsin inhibitor (SBTI)) intrajejunal (IJ) administration to male Sprague Dawley rats. […] Pharmacokinetic parameters are calculated using individual plasma concentrations. A qualified LC/MS method that measures the intact mass of the Example is used to determine plasma (K3 EDTA) concentrations. Each Example is tested with an analog peptide as an internal standard. Immunoaffinity based precipitation with anti-GIP/GLP1 antibodies is used to extract each test peptide and analog.
A short description of data set [6]: in vivo. The conditions noted are these: male, CD-1, mouse, plasma, sc, 200 nmol/kg.
Protocol: as §1
Data set [7] can be described thus: in vivo. The conditions noted are these: male, cynomolgus monkey, plasma, sc, 50 nmol/kg.
Protocol: Pharmacokinetics in male Cynomolgus Monkeys The pharmacokinetics of select Examples are evaluated following a single subcutaneous administration of 50 nMol/kg to male cynomolgus monkeys. […] Peptide plasma (K3 EDTA) concentrations are determined using a qualified LC/MS method that measured the intact mass of the compound. […] Instruments are combined for LC/MS detection.
Setting [8] is: rat, real gastrointestinal fluid or homogenate, pH 8.

Like-named read-outs stand apart in the source and are kept apart here. Numbered stars: 1 amine (or outer) side, 2 acyl side, 3 side chain; on linkers, the order of the positions; unused ones are H or OH. Square brackets hold non-standard residues; d marks the D form. Side chains are listed from the residue outwards. Peptide text beside a SMILES is read from it. * marks the point of attachment. C20 diacid = O=C(O)CCCCCCCCCCCCCCCCCCC(=O)*; C18 diacid = O=C(O)CCCCCCCCCCCCCCCCC(=O)*; αMePhe(2-F) = C[C@](N)(Cc1ccccc1F)C(=O)O; γGlu = O=C(O)[C@H](CCC(=O)[*:2])N[*:1]; αMeF = C[C@](N)(Cc1ccccc1)C(=O)O; αMeL = CC(C)C[C@](C)(N)C(=O)O; Orn = NCCC[C@H](N)C(=O)O; AEEA = NCCOCCOCC(=O)O; Aib = CC(C)(N)C(=O)O

For `CC[C@H](C)[C@H](NC(=O)[C@H](CC(C)C)NC(=O)[C@H](Cc1ccc(O)cc1)NC(=O)[C@H](CCC(=O)O)NC(=O)[C@@H](NC(=O)[C@H](Cc1ccccc1)NC(=O)[C@H](C)NC(=O)C(C)(C)NC(=O)[C@H](CCC(N)=O)NC(=O)[C@H](C)NC(=O)[C@H](CCCCNC(=O)COCCOCCNC(=O)COCCOCCNC(=O)CC[C@H](NC(=O)CCCCCCCCCCCCCCCCC(=O)O)C(=O)O)NC(=O)[C@H](CCC(=O)O)NC(=O)[C@H](CC(=O)O)NC(=O)[C@H](CC(C)C)NC(=O)[C@](C)(CC(C)C)NC(=O)[C@@H](NC(=O)[C@H](CO)NC(=O)[C@H](Cc1ccc(O)cc1)NC(=O)[C@H](CC(=O)O)NC(=O)[C@H](CO)NC(=O)[C@@H](NC(=O)[C@H](Cc1ccccc1)NC(=O)[C@@H](NC(=O)CNC(=O)[C@H](CCC(=O)O)NC(=O)C(C)(C)NC(=O)[C@@H](N)Cc1ccc(O)cc1)[C@@H](C)O)[C@@H](C)O)[C@@H](C)CC)[C@@H](C)CC)C(=O)N[C@@H](CCC(=O)O)C(=O)NCC(=O)NCC(=O)N1CCC[C@H]1C(=O)N[C@@H](CO)C(=O)N[C@@H](CO)C(=O)NCC(N)=O` [Example 303] (H-Y[Aib]EGTFTSDYSI[αMeL]LDEK([AEEA-AEEA-γGlu-C18 diacid])AQ[Aib]AFIEYLIEGGPSSG-NH2), the “frequency of positive CD+ T cell response (CDI>2.5)” value (shortened to “frequency”) in data set [1] is reported as “low”.

For `CC[C@H](C)[C@H](NC(=O)[C@H](CC(C)C)NC(=O)[C@H](Cc1ccc(O)cc1)NC(=O)[C@H](CCC(=O)O)NC(=O)[C@@H](NC(=O)[C@H](Cc1ccccc1)NC(=O)[C@H](CCC(=O)O)NC(=O)C(C)(C)NC(=O)[C@H](CCC(N)=O)NC(=O)[C@H](C)NC(=O)[C@H](CCCCNC(=O)COCCOCCNC(=O)COCCOCCNC(=O)CC[C@H](NC(=O)CCCCCCCCCCCCCCCCCCC(=O)O)C(=O)O)NC(=O)[C@H](CCCCN)NC(=O)[C@H](CC(=O)O)NC(=O)[C@H](CC(C)C)NC(=O)[C@](C)(CC(C)C)NC(=O)[C@@H](NC(=O)[C@H](CO)NC(=O)[C@H](Cc1ccc(O)cc1)NC(=O)[C@H](CC(=O)O)NC(=O)[C@H](CO)NC(=O)[C@@H](NC(=O)[C@H](Cc1ccccc1)NC(=O)[C@@H](NC(=O)CNC(=O)[C@H](CCC(=O)O)NC(=O)C(C)(C)NC(=O)[C@@H](N)Cc1ccc(O)cc1)[C@@H](C)O)[C@@H](C)O)[C@@H](C)CC)[C@@H](C)CC)C(=O)N[C@@H](C)C(=O)NCC(=O)NCC(=O)N1CCC[C@H]1C(=O)N[C@@H](CO)C(=O)N[C@@H](CO)C(=O)NCC(=O)N[C@@H](C)C(=O)N1CCC[C@H]1C(=O)N1CCC[C@H]1C(=O)N1CCC[C@H]1C(=O)N[C@@H](CO)C(N)=O` [Example 289] (H-Y[Aib]EGTFTSDYSI[αMeL]LDKK([AEEA-AEEA-γGlu-C20 diacid])AQ[Aib]EFIEYLIAGGPSSGAPPPS-NH2), the “frequency” value in data set [1] is “low”.

For the compound `CC[C@H](C)[C@H](NC(=O)[C@H](CC(C)C)NC(=O)[C@H](Cc1ccc(O)cc1)NC(=O)[C@H](CCC(=O)O)NC(=O)[C@@H](NC(=O)[C@H](Cc1ccccc1)NC(=O)[C@H](C)NC(=O)C(C)(C)NC(=O)[C@H](CCC(N)=O)NC(=O)[C@H](C)NC(=O)[C@H](CCCCNC(=O)COCCOCCNC(=O)COCCOCCNC(=O)CC[C@H](NC(=O)CCCCCCCCCCCCCCCCCCC(=O)O)C(=O)O)NC(=O)[C@H](CCCCN)NC(=O)[C@H](CC(=O)O)NC(=O)[C@H](CC(C)C)NC(=O)[C@H](CC(C)C)NC(=O)[C@@H](NC(=O)[C@H](CO)NC(=O)[C@H](Cc1ccc(O)cc1)NC(=O)[C@H](CC(=O)O)NC(=O)[C@H](CO)NC(=O)[C@@H](NC(=O)[C@H](Cc1ccccc1)NC(=O)[C@@H](NC(=O)CNC(=O)[C@H](CCC(=O)O)NC(=O)C(C)(C)NC(=O)[C@@H](N)Cc1ccc(O)cc1)[C@@H](C)O)[C@@H](C)O)[C@@H](C)CC)[C@@H](C)CC)C(=O)N[C@@H](C)C(=O)NCC(=O)NCC(=O)N1CCC[C@H]1C(=O)N[C@@H](CO)C(=O)N[C@@H](CO)C(=O)NCC(=O)N[C@@H](C)C(=O)N1CCC[C@H]1C(=O)N1CCC[C@H]1C(=O)N1CCC[C@H]1C(=O)N[C@@H](CO)C(N)=O` [Example 288] (H-Y[Aib]EGTFTSDYSILLDKK([AEEA-AEEA-γGlu-C20 diacid])AQ[Aib]AFIEYLIAGGPSSGAPPPS-NH2; N-terminus assumed), in data set [1], the “frequency” value was “low”.

For `CC[C@H](C)[C@H](NC(=O)[C@H](CC(C)C)NC(=O)[C@H](Cc1ccc(O)cc1)NC(=O)[C@H](CCC(=O)O)NC(=O)[C@@H](NC(=O)[C@H](Cc1ccccc1)NC(=O)[C@H](C)NC(=O)C(C)(C)NC(=O)[C@H](CCC(N)=O)NC(=O)[C@H](C)NC(=O)[C@H](CCCCNC(=O)COCCOCCNC(=O)COCCOCCNC(=O)CC[C@H](NC(=O)CCCCCCCCCCCCCCCCC(=O)O)C(=O)O)NC(=O)[C@H](CCCCN)NC(=O)[C@H](CC(=O)O)NC(=O)[C@H](CC(C)C)NC(=O)[C@H](CC(C)C)NC(=O)[C@@H](NC(=O)[C@H](CO)NC(=O)[C@H](Cc1ccc(O)cc1)NC(=O)[C@H](CC(=O)O)NC(=O)[C@H](CO)NC(=O)[C@@H](NC(=O)[C@](C)(Cc1ccccc1)NC(=O)[C@@H](NC(=O)CNC(=O)[C@H](CCC(=O)O)NC(=O)C(C)(C)NC(=O)[C@@H](N)Cc1ccc(O)cc1)[C@@H](C)O)[C@@H](C)O)[C@@H](C)CC)[C@@H](C)CC)C(=O)N[C@@H](CCC(=O)O)C(=O)NCC(=O)NCC(=O)N1CCC[C@H]1C(=O)N[C@@H](CO)C(=O)N[C@@H](CO)C(=O)NCC(N)=O` [Example 301] (H-Y[Aib]EGT[αMeF]TSDYSILLDKK([AEEA-AEEA-γGlu-C18 diacid])AQ[Aib]AFIEYLIEGGPSSG-NH2), the “frequency” value in data set [1] is given as “low”.

Regarding `CC[C@H](C)[C@H](NC(=O)[C@H](CC(C)C)NC(=O)[C@H](Cc1ccc(O)cc1)NC(=O)[C@@H](CCC(=O)O)NC(=O)[C@@H](NC(=O)[C@H](Cc1ccccc1)NC(=O)[C@H](CCC(=O)O)NC(=O)C(C)(C)NC(=O)[C@H](CCC(N)=O)NC(=O)[C@H](C)NC(=O)[C@H](CCCCNC(=O)COCCOCCNC(=O)COCCOCCNC(=O)CC[C@H](NC(=O)CCCCCCCCCCCCCCCCC(=O)O)C(=O)O)NC(=O)[C@H](CCCN)NC(=O)[C@H](CC(=O)O)NC(=O)[C@H](CC(C)C)NC(=O)[C@](C)(CC(C)C)NC(=O)[C@@H](NC(=O)[C@H](CO)NC(=O)[C@H](Cc1ccc(O)cc1)NC(=O)[C@H](CC(=O)O)NC(=O)[C@H](CO)NC(=O)[C@@H](NC(=O)[C@](C)(Cc1ccccc1F)NC(=O)[C@@H](NC(=O)CNC(=O)[C@H](CCC(=O)O)NC(=O)C(C)(C)NC(=O)[C@@H](N)Cc1ccc(O)cc1)[C@@H](C)O)[C@@H](C)O)[C@@H](C)CC)[C@@H](C)CC)C(=O)N[C@@H](CCC(=O)O)C(=O)NCC(=O)NCC(=O)N1CCC[C@H]1C(=O)N[C@@H](CO)C(=O)N[C@@H](CO)C(=O)NCC(=O)N[C@@H](C)C(=O)N1CCC[C@H]1C(=O)N1CCC[C@H]1C(=O)N1CCC[C@H]1C(=O)N[C@@H](CO)C(N)=O` [Example 2] (H-Y[Aib]EGT[αMePhe(2-F)]TSDYSI[αMeL]LD[Orn]K([AEEA-AEEA-γGlu-C18 diacid])AQ[Aib]EFI[dE]YLIEGGPSSGAPPPS-NH2; N-terminus assumed), the “percentage of peptide not cleaved using rSIF” value in data set [2] (0 min, 1% rSIF, 37° C.) was found to be 100%. For the same compound, the remaining at 0.05 h, 0.4 mg/mL in data set [2] (setting [8]) worked out at 75.5%. In data set [2] (setting [8]), the remaining at 0.25 h, 0.4 mg/mL was 18.3%. The remaining at 1 h, 0.4 mg/mL in data set [2] (setting [8]) was 0.3%. For the same compound, the “% peptide intact” value in data set [3] (no PI, control, 0 min) stood at 100.00%; in data set [3] (rSBTCI (0.5 mg/mL), 0 min), 100.00%; in data set [3] (rSBTCI (0.5 mg/mL), 15 min), 131.71%; in data set [3] (rSBTCI (0.5 mg/mL), 30 min), 126.53%; in data set [3] (rSBTCI (0.5 mg/mL), 60 min) it was 123.70%; in data set [3] (rSBTI (5 mg/mL), 0 min) it was 100.00%. Moreover, the remaining at 0.25 h stood at 2.42% in data set [3] (pH 8, no PI, control, 15 min) and 103% in data set [3] (pH 8, with rSBTI (5 mg/mL), protease inhibitor, rSBTI (5 mg/mL), 15 min). Besides, the remaining at 0.5 h in data set [3] (pH 8, no PI, control, 30 min) stood at 1.9%; in data set [3] (pH 8, with rSBTI (5 mg/mL), protease inhibitor, rSBTI (5 mg/mL), 30 min), 113%. Further, the remaining at 1 h in data set [3] (pH 8, no PI, control, 60 min) was found to be 3.09%; in data set [3] (pH 8, with rSBTI (5 mg/mL), protease inhibitor, rSBTI (5 mg/mL), 60 min), 87.3%. Further, the values for the AUCINF_D_obs in data set [4] and in data set [5] were 77.23 hr*kg*nmol/L/nmol and 231.7 (9.6) hr*kg*nmol/L/nmol, respectively. Also, the Cmax/D in data set [4] was 5.4 kg*nmol/L/nmol; in data set [5], 5.19 (0.20) kg*nmol/L/nmol. For the same compound, the CL/F was 0.216 mL/min/kg in “in vivo [6]” and 11.8 mL/day/kg in the data set “in vivo [7]”. The Tmax in “in vivo [6]” worked out at 6 h; in the data set “in vivo [7]”, 24 h. Also, the figures for the half-life in the data set “in vivo [6]” and in “in vivo [7]” were 453 min and 4.25 days, respectively.
